Test results taken from US20230382934A1, “HIGH ENTROPY OXIDES AND METHODS OF SYNTHESIS AND USE THEREOF” (Auburn University, priority 2022, published 2023).
Blank lines part the entries; values can stand above or below the compound they belong to.

Experiments:
[1] = cited from earlier work; for increase of relaxivity upon oxidation by excess H2O2: recently reported sensors
[2] = cited from earlier work; for log KML of the Mn(II) complex: other reported Mn(II)-binding ligands; for pMn: pH 7.4, 1.0 mM Mn(II) and ligand, previously characterized complexes
[3] = Stability of Fe(II) complexes by potentiometric pH titration (log KML); format: physicochemical; details: 25° C.
Experimental: (§1) The aqueous speciation of H4qp4 was previously determined. Those for its Fe(II) and Fe(III) complexes were assessed using a METROHM 765 Dosimat with a jacketed, airtight glass titration vessel. A Fisher Scientific Accumet Research AR15 pH meter was used to monitor the pH of the sample solutions during the titrations. The electrode was calibrated before each titration using commercially available standard solutions buffered to pH 4.0, 7.0, and 10.0. All samples were purged with argon prior to analysis and subsequently analyzed under an argon atmosphere at 25° C. to prevent carbonate contamination. All solution samples were prepared in solutions of 100 mM KCl in deionized Millipore water. The titrations investigating metal-ligand speciation were run with solutions that contained a 1:1 molar mixture of the ligand and FeCl2·(4H2O). Carbonate-free solutions of 0.10 M KOH and 0.10 M HCl were prepared using argon-saturated deionized Millipore water. The titration data were analyzed and fit to speciation models using the Hyperquad2006 program.

[4] = Stability of Fe(III) complexes by potentiometric pH titration (log KML); format: physicochemical; details: 25° C.
Experimental: as §1

[5] = Variable temperature 17O NMR, aquation number and water exchange of Mn(II) complexes; format: physicochemical; details: Example 1, Mn(II) complexes, 298 K
Experimental: FIG. 16 depicts plots of r2° as a function of temperature for 1 before and after oxidation by H2O2. Experimental conditions for pre-activated sensor (black squares): [1]=6.0 mM in 60 mM HEPES buffered to pH 7.4 and 10% (v/v) of 10% ^17OH2, B=9.4 T. Experimental conditions for activated sensor (red circles): [1]=2.5 mM in 60 mM MOPS buffered to pH 7.4 with 15 equiv. H2O2 and 10% (v/v) of 10% ^17OH2, B=9.4 T. NMR data acquisition began 15 min after the start of the oxidation reaction.
Aquation numbers (q) were calculated from the maximum ^17O transverse relaxivity, r2max°, and the equation: q=r2max°/510; Gale, Zhu, and Caravan previously used this relationship to estimate the inner-sphere hydration state of Mn(II) in coordination complexes (Gale, E. M. et al., 2013, J. Am. Chem. Soc., 135:18600). Relaxation rates were measured both for aqueous solutions containing Mn(II) complexes and for metal-free solutions buffered to pH 7.4. The linewidths at half-height of the signal were determined by a deconvolution procedure on the real part of the Fourier transformed spectra with a Lorentzian shape function in the data analysis module of Bruker Topspin 1.3® software. The measurements were performed with a commercial 5 mm Bruker broadband probe thermostat with a Bruker B-VT 3000 variable temperature unit. […]

[6] = Metal ion exchange with Fe(II) followed by UV/vis; format: physicochemical
Experimental: FIG. 18, comprising FIG. 18A and FIG. 18B, depicts representative spectrophotometric spectra. FIG. 18A depicts spectrophotometric analysis of the reaction between 0.1 mM Fe(ClO4)2 and 0.1 mM 1 in MeCN at 298 K. The UV/vis spectra of the product formed from 0.1 mM Fe(ClO4)2 and 0.1 mM H4qp4 (blue) and that corresponding to 0.1 mM 1 are provided for comparison. FIG. 18B depicts spectrophotometric analysis of the reaction between 0.1 mM Fe(OTf)2 and 0.1 mM 1 in aqueous solutions containing 50 mM HEPES buffered to pH 7.00 at 298 K. The UV/vis spectrum of the product formed from 0.1 mM Fe(OTf)2 and 0.1 mM H4qp4 (blue) and that corresponding to 0.1 mM 1 are provided for comparison.

[7] = Metal ion exchange with Zn(II) followed by 1H NMR; format: physicochemical; details: Example 2, 10 mM Fe(III) complex 3 and 20 mM Zn(ClO4)2, 48 h
Experimental: FIG. 19, comprising FIG. 19A and FIG. 19B, depicts representative NMR data. FIG. 19A depicts a reaction between 20 mM Zn(ClO4)2 and 10 mM 1 in CD3CN. The reaction equilibrated at 295 K for 24 h prior to data acquisition. FIG. 19B depicts the ^1H NMR spectrum of the product of the reaction between 10 mM Zn(ClO4)2 and 10 mM metal-free H4qp4.
FIG. 63, comprising FIG. 63A and FIG. 63B, depicts representative NMR data. FIG. 63A depicts the reaction between 20 mM Zn(ClO4)2 and 10 mM 3 in D20. The reaction equilibrated at 295 K for 48 h prior to data acquisition. FIG. 63B depicts a ^1H NMR spectrum of the product of the reaction between 10 mM Zn(ClO4)2 and 10 mM metal-free H4qp4 in D20.

[8] = T1-weighted relaxivity, 3 T clinical MRI scanner
Source text: All MRI data were collected at the Auburn University MRI Research Center on a Siemens Verio open-bore 3-T MRI clinical scanner. A 15-channel knee coil was used to simultaneously image 12-15 samples. The imaging procedure was identical to those used for similar studies (Zhang, Q. et al., 2011, Inorg. Chem. 50, 9365; Yu, M. et al., 2014, J. Am. Chem. Soc., 136:12836; Yu, M. et al., 2017, Inorg. Chem., 56:2812; Yu, M. et al., 2012, Inorg. Chem. 51:9153). An inversion recovery (IR) sequence was used that featured a non-selective adiabatic inversion pulse followed by a slice-selective gradient recalled echo (GRE) readout after a delay period corresponding to the inversion time (TI) (Bernstein, M. A. et al., 2004, Handbook of MRI Pulse Sequences; Haacke, E. M. et al., 1999, Magnetic Resonance Imaging: Physical Principles and Sequence Design). The GRE was a saturation readout, such that only one line of k-space was acquired per repetition time (TR), in order to maximize both signal strength and the accuracy of the T1 estimates. […]
Image analysis was performed using custom Matlab programs (Mathworks, Natick, MA). The initial TI=4.8 ms image was used as a baseline to determine circular region of interest (ROI) boundaries for each sample; from these, the mean pixel magnitudes for each ROI were calculated. […]

[9] = Example 1, previously reported Mn(II) complex 3; cited from earlier work

Compound: Oc1ccc(O)c(CN(CCN(Cc2ccccn2)Cc2cc(O)ccc2O)Cc2ccccn2)c1.[Br-].[Br-].[Mn+2] [Complex 3]
increase of relaxivity upon oxidation by excess H2O2 [1]: 30%

Compound: O=C(O)CN(CC(=O)O)C1CCCCC1N(CC(=O)O)Cc1ccccn1 (stereo not drawn) [PyC3A^3−]
log KML of the Mn(II) complex [2]: 14.14

log KML [3]: 27.16
Compound: (1-(2,5-dihydroxybenzyl)-8-(2,5-dihydroxybenzylalkoxide)-1,4,8,11-tetraazacyclotetradecane)iron(II) triflate [Complex 1]

Compound: O=C(O)CN1CCN(CC(=O)O)CCN(CC(=O)O)CCN(CC(=O)O)CC1 [DOTA^4−]
log KML of the Mn(II) complex [2]: 19.89

Compound: O=C([O-])CN(CC(=O)[O-])C1CCCCC1N(CC(=O)[O-])Cc1ccccn1.[Fe+2] (stereo not drawn) [Fe(II)-PyC3A]
increase in relaxivity on oxidation to Fe(III) ([1]; 1.4 T): 10 fold

log KML [4]: 33.80
Mn(II) displaced by an equimolar amount of Fe(II) ([6]; Example 1, by 3 h): 80%
Zn(II) complex with H4qp4 formed [7]: only trace amounts
Compound: O=S(=O)([O-])C(F)(F)F.O=S(=O)([O-])C(F)(F)F.[Fe+3].[O-]c1ccc(O)cc1CN1CCCNCCN(Cc2cc(O)ccc2O)CCCNCC1 [Complex 3, (1-(2,5-dihydroxybenzyl)-8-(2,5-dihydroxybenzylalkoxide)-1,4,8,11-tetraazacyclotetradecane)iron(III) triflate]
rate constant for water exchange (kex) [5]: 4.9e+06 s⁻¹
r1 ([8]; Example 2, Fe(III) complex 3, 3 T, 50 mM HEPES pH 7.00, 298 K): 0.87 mM⁻¹ s⁻¹
pMn [2]: 5.36
r1 of pre-activated form [9]: 5.46 mM^−1 s^−

log KML [4]: 38.84
Mn(II) displaced by an equimolar amount of Fe(II) ([6]; Example 1, MeCN, by 15 h): approximately 10%
Compound: CC#N.O=S(=O)([O-])C(F)(F)F.O=S(=O)([O-])C(F)(F)F.Oc1ccc(O)c(CN(CCN(Cc2ccccn2)Cc2ccccn2)Cc2ccccn2)c1.[Mn+2] [Complex 2]
pMn [2]: 7.25
increase of relaxivity upon oxidation by excess H2O2 [1]: 10%

Compound: NCCN1CCN(CC(=O)O)Cc2cccc(n2)CN(CC(=O)O)CC1 [PC2A-EA^2−]
log KML of the Mn(II) complex [2]: 19.01

Compound: O.O.O.O.O.O.[Mn+2] [[Mn(H2O)6]^2+]
T1-weighted relaxivity ([8]; Example 1, measured independently): 5.26 mM^−1 s^−
